Data from PMC3433420 (PLoS ONE, 2012).
Like-named read-outs stand apart in the source and are kept apart here. Each block holds one molecule with its values, some of them ahead of it. Residues, ends and D or L forms follow the SMILES beside them.

Experiments:
[1] = target: T1, PLCG1-NC tandem SH2 domains (Homo sapiens, UniProt P19174); assay: FP saturation binding assay; conditions: Protein PLCG1-NC; FP saturation binding, high-confidence ErbB interactions; mean over replicate hits
T1 construct: the tandem protein was included in our analysis with all internal amino acids linking the domains; 6X His; thioredoxin; made in house; host or cells: E. coli BL21(DE3)pLysS
T1 sequence (P19174 550-756 limits assumed): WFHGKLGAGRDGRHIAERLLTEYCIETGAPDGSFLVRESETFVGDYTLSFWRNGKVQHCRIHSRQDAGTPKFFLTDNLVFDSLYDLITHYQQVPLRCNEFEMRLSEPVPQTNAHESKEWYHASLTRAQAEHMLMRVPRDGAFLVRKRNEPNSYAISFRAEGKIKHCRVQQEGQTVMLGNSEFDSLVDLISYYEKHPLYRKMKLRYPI

[2] = target: T2, GRAP2 SH2 domain (Homo sapiens, UniProt O75791); assay: FP saturation binding assay; conditions: for share of the ErbB1 binding FE for GRAP2: free energy from FP KDs as percentage of total receptor recruitment (Figure S16)
T2 sequence (O75791 58-149 limits assumed): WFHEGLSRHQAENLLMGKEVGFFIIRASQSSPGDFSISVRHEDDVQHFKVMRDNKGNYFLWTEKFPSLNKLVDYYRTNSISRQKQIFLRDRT

[3] = target: T3, HSH2D SH2 domain (Homo sapiens, UniProt Q96JZ2); assay: FP saturation binding assay
T3 sequence (Q96JZ2 34-125 limits assumed): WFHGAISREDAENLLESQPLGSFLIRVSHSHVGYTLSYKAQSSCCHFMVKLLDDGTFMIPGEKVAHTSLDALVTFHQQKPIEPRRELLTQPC

[4] = target: T4, SH2D1A SH2 domain (Homo sapiens, UniProt O60880); assay: FP saturation binding assay
T4 sequence (O60880 6-104 limits assumed): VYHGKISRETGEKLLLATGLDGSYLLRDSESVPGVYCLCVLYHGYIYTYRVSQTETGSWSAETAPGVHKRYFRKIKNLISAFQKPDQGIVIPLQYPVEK

[5] = target: GRB2 SH2 domain (Homo sapiens, UniProt P62993); assay: FP saturation binding assay; conditions: for share of the ErbB1 binding FE for GRB2: free energy from FP KDs as percentage of total receptor recruitment (Figure S16)
GRB2 SH2 domain, sequence (P62993 60-152 limits assumed): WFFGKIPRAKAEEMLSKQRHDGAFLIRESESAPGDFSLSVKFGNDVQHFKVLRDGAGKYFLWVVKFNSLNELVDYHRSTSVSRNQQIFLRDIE

[6] = target: T5, PTPN11-NC tandem SH2 domains (Homo sapiens, UniProt Q06124); assay: FP saturation binding assay
T5 sequence (Q06124 6-216 limits assumed): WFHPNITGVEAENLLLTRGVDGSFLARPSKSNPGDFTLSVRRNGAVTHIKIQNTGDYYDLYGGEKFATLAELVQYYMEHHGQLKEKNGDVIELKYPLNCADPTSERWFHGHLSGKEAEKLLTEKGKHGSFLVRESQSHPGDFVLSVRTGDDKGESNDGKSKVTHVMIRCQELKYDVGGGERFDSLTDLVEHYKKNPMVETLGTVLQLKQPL

[7] = target: T6, PTPN11-N SH2 domain (Homo sapiens, UniProt Q06124); assay: FP saturation binding assay
T6 sequence (Q06124 6-102 limits assumed): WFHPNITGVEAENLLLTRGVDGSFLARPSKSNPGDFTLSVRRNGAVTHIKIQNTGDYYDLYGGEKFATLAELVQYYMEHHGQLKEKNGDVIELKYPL

[8] = target: T7, SH2D1B SH2 domain (Homo sapiens, UniProt O14796); assay: FP saturation binding assay
T7 sequence (O14796 5-101 limits assumed): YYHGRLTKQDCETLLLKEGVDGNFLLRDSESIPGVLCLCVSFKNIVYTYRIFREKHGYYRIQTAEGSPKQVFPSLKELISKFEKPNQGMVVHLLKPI

[9] = target: T8, LCK SH2 domain (Homo sapiens, UniProt P06239); assay: FP saturation binding assay; conditions: protein LCK; high-confidence ErbB interactions; mean of replicate hits
T8 construct: 93 SH2 and 2 PTB domain-containing constructs; 6X His; thioredoxin; made in house; host or cells: E. coli BL21(DE3)pLysS
T8 sequence (P06239 127-224 limits assumed): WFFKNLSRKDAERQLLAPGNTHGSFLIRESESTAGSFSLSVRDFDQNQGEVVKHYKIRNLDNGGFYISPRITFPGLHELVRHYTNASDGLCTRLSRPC
How it was run: (§1)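 Rhodamine-labeled peptides (10 nM final) were titrated with 12 SH2 domain concentrations (0.002–10 µM) in 20 mM HEPES, 100 mM KCl, 0.1% Tween-20, 5 mM DTT, pH 7.8. After 20 min at room temperature in the dark, FP (ex 530/em 555 nm) was read. KDs came from nonlinear least-squares fits.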

[10] = target: T9, PTK6 SH2 domain (Homo sapiens, UniProt Q13882); assay: FP saturation binding assay; conditions: protein PTK6; high-confidence ErbB interactions; mean of replicate hits
T9 construct: from the PTK6 SH2 domain; 6X His; thioredoxin; made in house; host or cells: E. coli BL21(DE3)pLysS
T9 sequence (Q13882 78-170 limits assumed): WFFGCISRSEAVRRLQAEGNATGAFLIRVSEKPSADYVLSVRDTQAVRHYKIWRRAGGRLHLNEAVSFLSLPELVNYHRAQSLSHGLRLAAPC
How it was run: as §1

[11] = target: T10, PIK3R3-C SH2 domain (Homo sapiens, UniProt Q92569); assay: biochemical; type: binding; conditions: protein PIK3R3-C; high-confidence ErbB interactions; mean of replicate hits
T10 construct: thioredoxin; made in house; host or cells: E. coli BL21(DE3)pLysS

[12] = target: T11, RASA1-N SH2 domain (Homo sapiens, UniProt P20936); assay: FP saturation binding assay
T11 sequence (P20936 181-272 limits assumed): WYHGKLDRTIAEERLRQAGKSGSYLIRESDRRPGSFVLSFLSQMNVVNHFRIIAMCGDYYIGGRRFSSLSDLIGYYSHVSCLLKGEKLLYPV

[13] = target: SH2 and PTB domains; conditions: ref Jones et al. 2006 / Kaushansky et al. Mol Biosys 2008 / Kaushansky et al. Chem and Biol 2008, cited from earlier work
Description: Supplement pone.0044471.s022.xlsx, sheet "Most recent PM interactions" | column: Kd || Supplement pone.0044471.s022.xlsx, sheet "All original PM interactions" | column: Kd

Molecule: CC(C)C[C@H](NC(=O)[C@H](Cc1ccc(OP(=O)(O)O)cc1)NC(=O)[C@H](CCC(=O)O)NC(=O)[C@@H]1CCCN1C(=O)[C@H](CC(N)=O)NC(=O)CN)C(=O)N[C@@H](CC(N)=O)C(=O)N[C@H](C(=O)N[C@H](C(=O)N[C@@H](CCC(N)=O)C(=O)N1CCC[C@H]1C(=O)N[C@H](C(=O)N[C@@H](CC(=O)O)C(=O)O)[C@@H](C)O)C(C)C)[C@@H](C)O [ErbB1 1138 13-mer] (HELM PEPTIDE1{G.N.P.E.[O=C([C@H](Cc1ccc(OP(=O)(O)O)cc1)N[*:1])[*:2]].L.N.T.V.Q.P.T.D}$$$$V2.0)
Kd [1]: 5350 nM
Kd [2]: 4820 nM
Kd [3]: 3410 nM
Kd [4]: 9440 nM

Molecule: CC(C)C[C@H](NC(=O)[C@@H]1CCCN1)C(=O)N[C@H](C(=O)N[C@@H](CS)C(=O)N[C@@H](CO)C(=O)N1CCC[C@H]1C(=O)N[C@@H](CCC(N)=O)C(=O)N1CCC[C@H]1C(=O)N[C@@H](CCC(=O)O)C(=O)N[C@@H](Cc1ccc(OP(=O)(O)O)cc1)C(=O)N[C@H](C(=O)N[C@@H](CC(N)=O)C(=O)N[C@@H](CCC(N)=O)C(=O)N1CCC[C@H]1C(=O)N[C@@H](CC(=O)O)C(=O)N[C@H](C(=O)N[C@@H](CCCNC(=N)N)C(=O)N[C@@H](CC(=O)O)C(=O)O)C(C)C)C(C)C)[C@@H](C)O [ErbB2 1139 18-mer] (HELM PEPTIDE1{P.L.T.C.S.P.Q.P.E.[O=C([C@H](Cc1ccc(OP(=O)(O)O)cc1)N[*:1])[*:2]].V.N.Q.P.D.V.R.D}$$$$V2.0)
Kd [5]: 1380 nM
Kd [2]: 560 nM
Kd [3]: 2820 nM

Molecule: CC[C@H](C)[C@H](NC(=O)[C@@H]1CCCN1C(=O)[C@@H](NC(=O)[C@H](CCCCN)NC(=O)[C@H](C)NC(=O)[C@H](CCC(=O)O)NC(=O)[C@H](CO)NC(=O)[C@H](Cc1ccc(OP(=O)(O)O)cc1)NC(=O)[C@H](CC(C)C)NC(=O)[C@H](CC(C)C)NC(=O)[C@H](CCC(N)=O)NC(=O)[C@@H](N)CCCCN)[C@@H](C)O)C(=O)N[C@@H](CC(=O)O)C(=O)O [ErbB3 868 13-mer] (HELM PEPTIDE1{K.Q.L.L.[O=C([C@H](Cc1ccc(OP(=O)(O)O)cc1)N[*:1])[*:2]].S.E.A.K.T.P.I.D}$$$$V2.0)
Kd [6]: 3680 nM
Kd [7]: 3610 nM
Kd [8]: 4960 nM

Molecule: CC(C)C[C@H](NC(=O)[C@H](CO)NC(=O)[C@H](Cc1c[nH]cn1)NC(=O)[C@H](CC(N)=O)NC(=O)[C@H](Cc1c[nH]c2ccccc12)NC(=O)[C@H](Cc1ccc(OP(=O)(O)O)cc1)NC(=O)[C@H](CC(=O)O)NC(=O)[C@@H]1CCCN1C(=O)[C@H](CC(N)=O)NC(=O)[C@@H](N)CC(=O)O)C(=O)N1CCC[C@H]1C(=O)N1CCC[C@H]1C(=O)N[C@@H](CC(=O)O)C(=O)O [ErbB4 1242 13-mer] (HELM PEPTIDE1{D.N.P.D.[O=C([C@H](Cc1ccc(OP(=O)(O)O)cc1)N[*:1])[*:2]].W.N.H.S.L.P.P.D}$$$$V2.0)
Kd [9]: 4460 nM
Kd [10]: 2760 nM
Kd [11]: 8290 nM
Kd [12]: 5030 nM
Kd [3]: 7370 nM

share of the ErbB1 binding FE for GRB2 [5]: 50%
share of the ErbB1 binding FE for GRAP2 [2]: 50%
Molecule: GNPEpYLNTVQPTd [ErbB1 pY1138]
Kd ([13]; protein ABL2): 85 nM
Kd ([13]; protein GRB2): 720 nM
Kd ([13]; protein ITK): 1760 nM
Kd ([13]; protein NCK2): 330 nM
Kd ([13]; protein PIK3R1-NC): 1570 nM
Kd ([13]; protein PIK3R2-N): 760 nM
Kd ([13]; protein PIK3R2-NC): 860 nM
Kd ([13]; protein PIK3R3-N): 840 nM
Kd ([13]; protein PIK3R3-NC): 1690 nM
Kd ([13]; protein RASA1-N): 390 nM
Kd ([13]; protein SHC1-PTB): 130 nM
Kd ([13]; protein VAV2): 370 nM
Kd ([13]; protein ZAP70-NC): 1140 nM

share of the ErbB1 binding FE for GRB2 [5]: 50%
share of the ErbB1 binding FE for GRAP2 [2]: 50%
Molecule: PVPEpYINQSVPKd [ErbB1 pY1092]
Kd ([13]; protein ABL1): 920 nM
Kd ([13]; protein ABL2): 150 nM
Kd ([13]; protein BLK): 300 nM
Kd ([13]; protein GRB2): 200 nM
Kd ([13]; protein GRB10): 1300 nM
Kd ([13]; protein ITK): 220 nM
Kd ([13]; protein NCK2): 1100 nM
Kd ([13]; protein PIK3R1-N): 1080 nM
Kd ([13]; protein PIK3R1-NC): 670 nM
Kd ([13]; protein PIK3R2-N): 450 nM
Kd ([13]; protein PIK3R2-NC): 1410 nM
Kd ([13]; protein PIK3R3-N): 510 nM
Kd ([13]; protein PIK3R3-NC): 1020 nM
Kd ([13]; protein PLCG2-NC): 1630 nM
Kd ([13]; protein RASA1-N): 180 nM
Kd ([13]; protein SRC): 1790 nM
Kd ([13]; protein SYK-C): 1920 nM
Kd ([13]; protein SYK-NC): 910 nM
Kd ([13]; protein VAV2): 540 nM
Kd ([13]; protein YES1): 340 nM
